Like-named read-outs stand apart in the source and are kept apart here.
Legend:
[1] = system: LPS-induced nitric oxide production in RAW264.7 cells; experiment: LPS-induced NO production, Griess Reagent assay; assay type: cell-based, mouse; conditions: for Inhibitory activity on LPS-induced NO secretion, in words: 10 µM; for IC50: LPS (0.5 μg/mL) 24 h; for Inhibition rate±SD (%) against NO production / inhibition at 10 µM: compounds 10 μM, 1 h, then LPS (0.5 μg/mL) 24 h; for inhibition at 10 µM: read-out: Inhibition rate±SD (%) against NO production
Description: RAW264.7 cells (7 × 10^4 cells/well) were seeded into 48-well plate and used for experiments after 24 h. […] After 24 h collect cell supernatant, NO production was measured using Griess Reagent assay (Beyotime). Griess reagent were mixed at a ratio of 1:1, and reacted at room temperature for 15 min. Measurement of absorbance at […] with enzyme reader. At least three independent experiments were performed for the determination of IC50 values, which were shown as mean ± SD. All experimental data were analysed by using GraphPad Prism software, version 8.0 (GraphPad Inc.).

RAW264.7 cells = experiment: Cell viability assay (MTT), RAW264.7; assay type: cell-based, mouse; conditions: 24 h, read-out: Cytotoxicity IC50 with RAW264.7
Description: (§1) RAW264.7 cells (1 × 10^4 cells/well) were seeded into 96-well plate and used for experiments after 24 h. Compounds (4 µM, 20 µM and 100 µM) treated cell for 24 h. Forty microliters of MTT solution (5 mg/mL, Sigma-Aldrich) was then added and incubated for an additional 4 h. After 4 h, cell culture supernatants were removed and DMSO (150 µL) was added into per well for dissolving the resulting crystals. Shaking about 1 0 ∼ 15 min and the absorbance at 492 nm was measured by a microplate reader (MQX200, Bio-Tek, Winooski, VT). At least three independent experiments were performed for the determination of IC50 values, which were shown as mean ± SD. All experimental data were analysed by using GraphPad Prism software, version 8.0 (GraphPad Inc.).

LO2 cells = experiment: Cell viability assay (MTT), LO2; assay type: cell-based; conditions: 24 h, read-out: Cytotoxicity IC50 with LO2
[2] = cited from earlier work
[3] = Cell viability assay (MTT), RAW264.7; assay type: cell-based, mouse; conditions: mouse, RAW264.7 cells, read-out: Cytotoxicity IC50 with RAW264.7
Description: as §1

[4] = Cell viability assay (MTT), LO2; assay type: cell-based; conditions: human, LO2 cells, read-out: Cytotoxicity IC50 with LO2
[5] = Human liver microsomes stability assay in vitro; assay type: in vitro ADME
Description: The livers were homogenised initially in a Tris (0.1 M)/KCl (0.1 M)/EDTA (1 mM)/butylated sodium hydroxytoluene (BHT) (0.02 mM) buffer. Add 1.5 µL control/test compound B12 working solution to 238.5 µL liver microsome working solution, gently mix. Pre-incubate at 37 °C for 5 min. Start the reaction by adding 60 µL NADPH working solution. Mix by pipetting up and down. At each time point: 0, 5, 15, 30 and 60 min, remove 30 µL of reaction mixture to 300 µL of quenching solution. Vortex vigorously for ∼1 min and centrifuge at 4000 rpm at 4 °C for 15 min. Remove 100 µL of the supernatant and mixed with 100 µL distilled water for LC-MS/MS analysis.

LPS-induced HaCaT cells = experiment: Hyperproliferation assay, LPS-stimulated HaCaT cells (MTT); assay type: cell-based, human; conditions: pre-treated 6 h, LPS 24 h
Description: HaCaT cells were seeded in 96-well plates and cultured at 37 °C in a humidified 5% CO2 atmosphere. When the cell confluency reached 60–70%, HaCaT cells were then starved in serum-free DMEM for 12 h before stimulated by 100 ng/mL LPS for 24 h to mimic hyperproliferative psoriatic keratinocytes. The cell viability was measured by MTT method. Results are expressed as the percentage survival of cells in the cell treated group and the untreated control group (without the tested compound and LPS).

TOPK [6] = molecular target: T1, TOPK (Homo sapiens, UniProt Q96KB5); parameters: method as in PMID 17276892; conditions: 100 µM; cited from earlier work
T1 construct: endogenous in cells
T1 sequence (Q96KB5 1-322): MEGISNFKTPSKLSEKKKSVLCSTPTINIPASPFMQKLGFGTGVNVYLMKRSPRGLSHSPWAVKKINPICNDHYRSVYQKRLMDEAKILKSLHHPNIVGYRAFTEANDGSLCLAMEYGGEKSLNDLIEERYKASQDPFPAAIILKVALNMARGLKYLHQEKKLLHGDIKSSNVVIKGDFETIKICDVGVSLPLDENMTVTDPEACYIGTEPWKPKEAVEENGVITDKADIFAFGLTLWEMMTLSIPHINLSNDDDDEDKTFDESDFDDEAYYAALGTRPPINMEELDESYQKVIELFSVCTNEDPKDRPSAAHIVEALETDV

TOPK [7] = molecular target: T1, TOPK; parameters: method as in earlier work; conditions: ref 16/17; cited from earlier work
TOPK [8] = molecular target: T1, TOPK; parameters: method as in PMID 28404919; conditions: time- and dose-dependent, in vitro and in vivo; cited from earlier work
[9] = system: IMQ-induced psoriasis mouse model; experiment: IMQ-induced psoriasis-like skin inflammation mouse model; assay type: in vivo, BALB/c mice; conditions: intragastric once a day, 7 days
Description: During treatment for 7 days, to score the severity of inflammation of mouse skin, an objective scoring system was developed based on the clinical psoriasis area and severity index. Erythema, scaling, and thickening were scored independently from 0 to 4 as follows: 0, none; 1, slight; 2, moderate; 3, marked; 4, very marked and weight loss. The cumulative score (erythema plus scaling plus thickening) served to indicate the severity of inflammation (scale 0 ∼ 12). On the 8th day, the mice were taken eyeball blood and back skin. One-half of the samples were immediately fixed in 4% paraformaldehyde and for haematoxylin and eosin (H&E) staining. The other samples were put in a −80 °C freezer. Before used, they were placed at room temperature for 30 min. After that, they were added 1 × PBS proportionally, homogenised and centrifuged. The supernatant was collected and used for ELISA assay and Western blot assay. […] The histological image was obtained using 3[sequence]’s Slide Converter (3[sequence], Hungary).

| Compound | IC50 [1] [µM] | Inhibition rate±SD (%) against NO production [1] [%] | IC50 (RAW264.7 cells) [µM] | IC50 (LO2 cells) [µM] | IC50 ([1]; Mus musculus) [µM] | inhibition at 10 µM ([1]; Mus musculus) [%] | IC50 at 24 h [3] [µM] | IC50 at 24 h [4] [µM] | melting point [°C] | also measured |
| --- | --- | --- | --- | --- | --- | --- | --- | --- | --- | --- |
| 1–(5-acetyl-2-methoxyphenyl)-3–(2-fluorophenyl) urea [Compound B7] | > 10 | 15.69±4.15 | > 100 | > 100 |  |  |  |  |  | Inhibitory activity on LPS-induced NO secretion, in words [1]: weak to moderate inhibitory activity |
| 1–(5-acetyl-2-methoxyphenyl)-3–(4-fluorobenzyl) urea [Compound C4] | > 10 | 45.23±3.25 | > 100 | > 100 |  |  |  |  |  |  |
| 1–(5-acetyl-2-methoxyphenyl)-3–(4-fluorophenyl) urea [Compound B6] | > 10 | 24.15±6.18 | > 100 | > 100 |  |  |  |  |  | Inhibitory activity on LPS-induced NO secretion, in words [1]: moderate inhibitory activity |
| 1–(5-acetyl-2-methoxyphenyl)-3–(4-methoxyphenyl) urea [Compound B10] | > 10 | 5.03± 6.25 | > 100 | > 100 |  |  |  |  |  | Inhibitory activity on LPS-induced NO secretion, in words [1]: moderate inhibitory activity |
| 1–(5-acetyl-2-methoxyphenyl)-3–(4-methylbenzyl) urea [Compound C3] | > 10 | 30.23±4.56 | > 100 | > 100 |  |  |  |  |  |  |
| COc1cc(O)c(C(C)=O)cc1[N+](=O)[O-] [Compound 1] |  |  |  |  |  |  |  |  |  | Anti-inflammatory activity ([2]; reported by Huang): strong anti-inflammatory activity |
| COc1cc(O)c(C(C)=O)cc1N [Compound 2] |  |  |  |  |  |  |  |  |  | Anti-inflammatory activity ([2]; reported by Huang): strong anti-inflammatory activity |
| COc1ccc(C(C)=O)c(Oc2ccc(NC(=O)/C=C/c3cc(OC)c(OC)c(OC)c3)cc2)c1 [Compound 3] |  |  |  |  |  |  |  |  |  | Anti-inflammatory activity [2]: suitable anti-inflammatory activity |
| COc1cc(O)c(C(C)=O)cc1NC(=O)NCc1ccccc1 [Compound C2, 1–(5-acetyl-4-hydroxy-2-methoxyphenyl)-3-benzylurea] |  |  |  |  | > 10 | 7.86 ± 2.19 | > 100 | > 100 | 194 to 195 |  |
| COc1ccc(CNC(=O)Nc2cc(C(C)=O)c(O)cc2OC)cc1 [Compound C5, 1–(5-acetyl-4-hydroxy-2-methoxyphenyl)-3–(4-methoxybenzyl) urea] |  |  |  |  | > 10 | 6.25 ± 5.16 | > 100 | > 100 | 233 to 234 |  |
| COc1cc(O)c(C(C)=O)cc1NC(=O)NCc1ccco1 [Compound C7, 1–(5-acetyl-4-hydroxy-2-methoxyphenyl)-3-(furan-2-ylmethyl) urea] |  |  |  |  | > 10 | 26.2 ± 5.13 | > 100 | > 100 | 231 to 232 |  |
| COc1cc(O)c(C(C)=O)cc1NC(=O)NCCc1ccc(F)cc1 [Compound D2, 1–(5-acetyl-4-hydroxy-2-methoxyphenyl)-3–(4-fluorophenethyl) urea] |  |  |  |  | > 10 | 30.2 ± 3.98 | > 100 | > 100 | 224 to 225 |  |
| COc1ccc(CCNC(=O)Nc2cc(C(C)=O)c(O)cc2OC)cc1 [Compound D3, 1–(5-acetyl-4-hydroxy-2-methoxyphenyl)-3–(4-methoxyphenethyl) urea] |  |  |  |  | > 10 | 33.3 ± 3.18 | > 100 | > 100 | 180 to 181 |  |
| COc1ccc2c(c1)[C@]13CCCC[C@@H]1[C@H](C2)N(C)CC3 [Dextromethorphan, reference compound] |  |  |  |  |  |  |  |  |  | CLhep ([5]; human): 13.7 mL/min/kg; T1/2 ([5]; human liver microsomes): 39.5 min; microsomal CLint ([5]; human liver microsomes): 35.1 µL/min/mg |
| COc1ccc(C(C)=O)c(O)c1 [Pae, paeonol] |  |  |  |  | > 10 | 18.4 ± 1.84 | > 100 | > 100 |  | Inhibitory activity on LPS-induced NO secretion, in words [1]: weak potencies; Excessive proliferation of LPS-induced HaCaT cells (LPS-induced HaCaT cells): did not have this effect; Expression of TOPK (TOPK [6]): inhibit the expression of TOPK; Affinity for TOPK (MST) (TOPK [7]): confirmed the affinity of paeonol for TOPK; Phosphorylation levels of p38, JNKs, MSK1 and histone H2AX (TOPK [8]): suppressed |
| C[C@@H]1C[C@H]2[C@@H]3CCC4=CC(=O)C=C[C@]4(C)[C@@]3(F)[C@@H](O)C[C@]2(C)[C@@]1(O)C(=O)CO [dexamethasone, reference compound] |  |  |  |  |  |  |  |  |  | Pathological reduction, H&E of skin tissue ([9]; 20 mg/kg): high pathological reduction; Experimental symptoms and PASI score ([9]; B12 20 and 40 mg/kg, Dex 20 mg/kg): significantly attenuated experimental symptoms and PASI score |
